The test system of one series is male C57BL/6J mice. Put plainly: Head-twitch response (HTR) in mice. The series is classed as in vivo, mouse. As to conditions: for ED50: Mus musculus. The method, then:
Male C57BL/6J mice (6-8 weeks old) from Jackson Labs (Bar Harbor, ME, USA) were used for the behavioral experiments. The mice were housed on a reversed light-dark cycle (lights on at 1900 h, off at 0700 h) in an AAAC-approved vivarium at the University of California San Diego. Mice were housed up to four per cage in a climate-controlled room and with food and water provided ad libitum except during behavioral testing. Testing was performed between 1000 and 1800 h (during the dark phase of the light-dark cycle). The studies were conducted in accordance with National Institutes Health (NIH) guidelines and were approved by the University of California San Diego Institutional Animal Care and Use Committee.
The mice were allowed to recover from the magnet implantation surgeries for at least 1 week prior to behavioral testing. HTR experiments were conducted in a well-lit room, and the mice were allowed to habituate to the room for at least 1 h prior to testing. Head twitches was assessed in a 12-cm diameter glass cylinder surrounded by a magnetometer coil. Coil voltage was low-pass filtered (2 kHz), amplified, and digitized (20-kHz sampling rate) using a Powerlab/8SP with LabChart v 7.3.2 (ADInstruments, Colorado Springs, CO, USA). […] HTR counts were analyzed using one-way ANOVAs. Dunnett's test was used for post hoc comparisons.

The target in series [1] is T1, 5-HT2B (Homo sapiens, UniProt P41595). Put plainly: Ca2+ flux assay, 5-HT2B. The series is classed as cell-based. As to conditions: Ca2+ flux. On the set-up: expressed in transfected cells. The method, then:
(§1) Cell lines were maintained in DMEM containing 10% FBS, 10 μg/mL Blasticidin (Invivogen), and 100 μg/mL Hygromycin B (GoldBio). At least 20-24 hours before the assay, receptor expression was induced with tetracycline ([…]) and cells were seeded into 384-well poly-L-lysine-coated black plates at a density of 7,500 cells/well in DMEM containing 1% dialyzed FBS. On the day of the assay, the cells were incubated for 1 h at 37° C. with Fluo-4 Direct dye (Invitrogen, 20 μl/well) reconstituted in drug buffer (20 mM HEPES-buffered HBSS, pH 7.4) containing 2.5 mM probenecid. Drug dilutions were prepared at 5X final concentration in McCorvy buffer (20 mM HEPES-buffered HBSS, 0).1% BSA, 0.01% ascorbic acid pH 7.4). After dye load, cells were allowed to equilibrate to room temperature for 15 minutes, and then placed in a FLIPR^TETRA fluorescence imaging plate reader (Molecular Devices). Fluorescence for the FLIPR^TETRA were programmed to read baseline fluorescence for 10 s (1 read/s), and afterward 5 μl of drug per well was added and read for a total of 5-10 min (1 read/s). Fluorescence in each well was normalized to the average of the first 10 reads for baseline fluorescence, and then either maximum-fold peak increase over basal or area under the curve (AUC) was calculated. […] Data was plotted and non-linear regression was performed using “log(agonist) vs. response” in Graphpad Prism 8 to yield Emax and EC50 parameter estimates.

Series [2] addresses 5-HT2A (Homo sapiens, UniProt P28223). Nature of the series: Ca2+ flux assay, 5-HT2A. The series is classed as cell-based. Further details: expressed in transfected cells. The method, then: as §1
On the technique in general: Calcium flux is commonly read through the fluorescence of an indicator in the cells.

In series [3] the test system is 5-HT2A. Put plainly: Ca2+ flux assay, 5-HT2A. The series is classed as cell-based, human. As to conditions: Gq/11 Ca2+ mobilization; higher number = skewed towards 5-HT2A. The method, then:
as §1

Series [4] concerns the target T1, 5-HT2B. Put plainly: BRET Gq dissociation, 5-HT2B. The series is classed as cell-based. On the set-up: expressed in transfected cells; host or cells: HEK293T, transient. In general terms: In BRET a luciferase serves as donor, and the signal depends on an acceptor being close.
Series [5] deals with T2, 5-HT2C (Homo sapiens, UniProt P28335).
T2 sequence (P28335 33-458): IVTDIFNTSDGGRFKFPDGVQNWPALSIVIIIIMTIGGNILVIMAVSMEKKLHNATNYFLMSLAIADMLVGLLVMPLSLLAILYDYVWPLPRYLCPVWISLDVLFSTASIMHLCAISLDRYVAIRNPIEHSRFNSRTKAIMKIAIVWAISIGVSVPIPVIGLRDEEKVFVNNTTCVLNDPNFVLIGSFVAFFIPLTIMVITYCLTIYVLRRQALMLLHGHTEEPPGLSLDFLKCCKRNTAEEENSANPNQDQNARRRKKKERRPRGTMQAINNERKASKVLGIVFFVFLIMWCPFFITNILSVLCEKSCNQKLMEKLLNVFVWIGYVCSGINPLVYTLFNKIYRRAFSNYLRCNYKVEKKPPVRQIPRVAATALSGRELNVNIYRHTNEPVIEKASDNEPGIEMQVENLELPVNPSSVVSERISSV
Put plainly: Ca2+ flux assay, 5-HT2C. The series is classed as cell-based. On the set-up: expressed in transfected cells. The method, then: as §1

The target in series [6] is T2, 5-HT2C. Put plainly: BRET Gq dissociation, 5-HT2C. Further details: expressed in transfected cells; host or cells: HEK293T, transient. The series is classed as cell-based.

The values that follow come from patent publication US20240254087A1, “SELECTIVE, PARTIAL, AND ARRESTIN-BIASED 5-HT2A AGONISTS WITH UTILITY IN VARIOUS DISORDERS” (Saint Joseph's University, priority 2021, published 2024).

The structures appear in SMILES notation. Where a name gives a salt, the structure may show the parent alone. Read-outs that look alike come from different tables or passages of the source. Bounds are passed on as bounds.

T1 sequence (P41595 whole entry): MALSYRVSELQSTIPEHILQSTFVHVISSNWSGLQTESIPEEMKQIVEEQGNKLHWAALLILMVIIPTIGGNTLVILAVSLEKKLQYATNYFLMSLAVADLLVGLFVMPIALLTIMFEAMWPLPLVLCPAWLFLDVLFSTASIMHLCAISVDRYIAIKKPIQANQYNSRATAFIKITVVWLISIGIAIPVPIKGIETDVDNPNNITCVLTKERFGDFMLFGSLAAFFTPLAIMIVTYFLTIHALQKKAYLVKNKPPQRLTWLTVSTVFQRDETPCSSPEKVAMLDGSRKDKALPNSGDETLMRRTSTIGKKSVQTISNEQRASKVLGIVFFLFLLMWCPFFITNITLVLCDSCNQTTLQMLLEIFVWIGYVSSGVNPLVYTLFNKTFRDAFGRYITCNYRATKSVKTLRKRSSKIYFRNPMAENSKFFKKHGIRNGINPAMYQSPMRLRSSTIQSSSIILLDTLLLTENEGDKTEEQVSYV
5-HT2A (Homo sapiens, UniProt P28223), sequence (P28223 whole entry): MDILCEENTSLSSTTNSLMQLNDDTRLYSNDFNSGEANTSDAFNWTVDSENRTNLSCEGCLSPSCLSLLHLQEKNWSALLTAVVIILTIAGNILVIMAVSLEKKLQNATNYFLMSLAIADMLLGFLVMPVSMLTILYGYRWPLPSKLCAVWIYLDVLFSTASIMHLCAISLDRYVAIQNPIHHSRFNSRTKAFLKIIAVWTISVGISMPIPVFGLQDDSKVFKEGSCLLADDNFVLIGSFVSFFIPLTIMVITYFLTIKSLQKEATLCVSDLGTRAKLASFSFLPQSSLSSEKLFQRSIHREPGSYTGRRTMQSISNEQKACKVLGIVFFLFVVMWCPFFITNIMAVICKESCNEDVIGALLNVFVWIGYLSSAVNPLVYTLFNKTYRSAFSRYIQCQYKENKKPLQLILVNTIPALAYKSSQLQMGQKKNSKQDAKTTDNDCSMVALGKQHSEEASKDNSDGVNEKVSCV

In the case of `COc1cc(OC)c(OC)cc1CCNC(C)c1cccc2ccccc12` (centres unmarked) (as salt: HCl), the melting point – broadly, the temperature, or range, at which the solid turns liquid – lay in the range of 195.2 to 196.4 °C.

The compound `COc1cc([N+](=O)[O-])c(OC)cc1CCNCc1cccc2ccccc12` (as salt: HCl) [25N-N-1-Nap (16), [2-(2,5-dimethoxy-4-nitrophenyl)ethyl][(naphthalen-1-yl)methyl]amine] gave a melting point of 191.8 to 192.3 °C.

In turn, `COc1cc([N+](=O)[O-])c(OC)cc1CCNCc1ccccc1` (as salt: HCl) [25N-NB (2), Benzyl[2-(2,5-dimethoxy-4-nitrophenyl)ethyl]amine] yielded a melting point of 220 to 221 °C.

As for `COc1cc([N+](=O)[O-])c(OC)cc1CCNCc1cccc(F)c1OC` (as salt: HCl) [25N-NB-2-MeO-3-F (19), [2-(2,5-dimethoxy-4-nitrophenyl)ethyl][(3-fluoro-2-methoxyphenyl)methyl]amine], the melting point is 155 to 156.7 °C.

With `COc1cc([N+](=O)[O-])c(OC)cc1CCNCc1cccc(C)c1O` (as salt: HCl) [25N-NB-2-OH-3-Me (18), 2-({[2-(2,5-dimethoxy-4-nitrophenyl)ethyl]amino}methyl)-6-methylphenol], the melting point lay within 177.6 to 179.5 °C.

For `COc1cc([N+](=O)[O-])c(OC)cc1CCNCc1cccc(F)c1` (as salt: HCl) [25N-NB-3-F (24), [2-(2,5-dimethoxy-4-nitrophenyl)ethyl][(3-fluorophenyl)methyl]amine], the melting point was 216.2 to 217.5 °C.

Consider `COc1cc([N+](=O)[O-])c(OC)cc1CCNCc1cccc(C)c1` (as salt: HCl) [25N-NB-3-Me (22), [2-(2,5-dimethoxy-4-nitrophenyl)ethyl][(3-methylphenyl)methyl]amine], for which the melting point lay in the range of 194.4 to 195.5 °C.

Compound `COc1cc([N+](=O)[O-])c(OC)cc1CCNCc1cccc(O)c1` (as salt: HCl) [25N-NB-3-OH (21), 3-({[2-(2,5-dimethoxy-4-nitrophenyl)ethyl]amino}methyl)phenol] registered a melting point of 194 to 195.5 °C.

In turn, `COc1cc([N+](=O)[O-])c(OC)cc1CCNCc1ccc(F)cc1` (as salt: HCl) [25N-NB-4-F (25), [2-(2,5-dimethoxy-4-nitrophenyl)ethyl][(4-fluorophenyl)methyl]amine] registered a melting point of 180 to 181 °C.

With `COc1cc([N+](=O)[O-])c(OC)cc1CCNCc1ccc(C)cc1` (as salt: HCl) [25N-NB-4-Me (23), [2-(2,5-dimethoxy-4-nitrophenyl)ethyl] [(4-methylphenyl)methyl]amine], the melting point was in the range of 182 to 184 °C.

For the compound `COc1cc([N+](=O)[O-])c(OC)cc1CCNCc1ccccc1C(F)(F)F` (as salt: HCl) [25N-NBCF3 (14), [2-(2,5-dimethoxy-4-nitrophenyl)ethyl]({[2-(trifluoromethyl)phenyl]methyl}) amine], the melting point was 156.7 to 159.1 °C.

`COc1cc([N+](=O)[O-])c(OC)cc1CCNCc1cccc2c1OC(F)(F)O2` (as salt: HCl) [25N-NBMDF2 (13), [(2,2-difluoro-2H-1,3-benzodioxol-4-yl)methyl][2-(2,5-dimethoxy-4-nitrophenyl)ethyl]amine] registered a melting point of 208.4 to 209.8 °C.

Turning to `COc1cc([N+](=O)[O-])c(OC)cc1CCNCc1ccccc1[N+](=O)[O-]` (as salt: HCl) [25N-NBNO2 (15), [2-(2,5-dimethoxy-4-nitrophenyl)ethyl][(2-nitrophenyl)methyl]amine], the melting point is 200.5 to 201.7 °C.

Regarding `COc1cc([N+](=O)[O-])c(OC)cc1CCNCc1ccccc1O` (as salt: HCl) [25N-NBOH (3), 2-({[2-(2,5-dimethoxy-4-nitrophenyl)ethyl]amino}methyl)phenol], the melting point was 205 to 206.7 °C.

With `COc1cc([N+](=O)[O-])c(OC)cc1CCNCc1ccccc1OC` (as salt: HCl) [25N-NBOMe (4), [2-(2,5-dimethoxy-4-nitrophenyl)ethyl] [(2-methoxyphenyl)methyl]amine], the melting point lay in the range of 166.4 to 167.8 °C.

Take `COc1cc([N+](=O)[O-])c(OC)cc1CCNCc1ccccc1-c1ccccc1` (as salt: HCl) [25N-NBPh (17), ({[1,1′-biphenyl]-2-yl}methyl)[2-(2,5-dimethoxy-4-nitrophenyl)ethyl]amine]: the melting point is 181.5 to 182.5 °C.

On to `COc1cc(CCNCc2cccc3ccccc23)cc(OC)c1Br` (as salt: HCl) [(31), 2-(4-bromo-3,5-dimethoxyphenyl)-N-[(naphthalen-1-yl)-methyl]ethan-1-amine], for which the melting point was in the range of 232.8 to 234.3 °C.

Regarding `COc1cc(Br)cc(OC)c1CC(C)NCc1cccc2ccccc12` (centres unmarked) (as salt: HCl) [(33)], the melting point lay in the range of 207.9 to 209.2 °C.

`COc1cc(Br)c(CCNCc2cccc(C)c2O)cc1OC` (as salt: HCl) [(43), 2-(((2-bromo-4,5-dimethoxyphenethyl)-amino)-methyl)-6-methylphenol] returned a melting point of 169.4 to 169.9 °C.

In turn, `COc1cc(OC)c(OC)cc1CCNCc1cccc(I)c1` (as salt: HCl) [(53), N-(3-iodobenzyl)-2-(2,4,5-trimethoxyphenyl)-ethan-1-amine] registered a melting point of 155.5 to 156.1 °C.

`COc1cc(OC)c(OC)cc1CCNCc1ccccc1-c1cccs1` (as salt: HCl) [(59), N-(2-(thiophen-2-yl)benzyl)-2-(2,4,5-trimethoxyphenyl)-ethan-1-amine]: the melting point lay within 158.4 to 159.8 °C.

Consider `COc1cc([N+](=O)[O-])c(OC)cc1CCNCc1ccccc1C` [25N-NBMe (6)], for which, in the series with male C57BL/6J mice, the “Max HTR response during a 30-min assessment (maximum counts ÷ baseline response)” value is 8.0-fold increase. Further, the ED50 in the series with male C57BL/6J mice (read-out: HTR ED50 μmol/kg (95% CI), SC, except DOI and 25D-NBOMe IP) was determined as 3.24 µmol/kg; in the series with male C57BL/6J mice (read-out: HTR ED50 mg/kg (95% CI), SC, except DOI and 25D-NBOMe IP), 1.19 mg/kg. The “5-HT2B EC50, nM” value on 5-HT2B [1] is on record as “No activity”. Besides, the Emax – broadly, the greatest response seen or fitted, relative to the assay's reference – on 5-HT2B [1] (read-out: 5-HT2B Emax % 5-HT) was less than 10%; at 5-HT2A [2] (read-out: 5-HT2A Emax % 5-HT, Ca2+ flux), 85 ± 1%; on 5-HT2B [4] (read-out: 5-HT2B Gq Dissociation (BRET) EMAX ± SEM (%5-HT)), 22.2 ± 3.2%; on 5-HT2C [5] (read-out: 5-HT2C Emax % 5-HT) it was 89 ± 2%; at 5-HT2C [6] (read-out: 5-HT2C Gq Dissociation (BRET) EMAX ± SEM (%5-HT)), 89.4 ± 2.3%. Besides, the EC50 (as a rule, the concentration needed to bring the measured effect to its halfway point) on 5-HT2A [2] (5-HT2A EC50, nM, Ca2+ flux) is 1.19 nM; on 5-HT2B [4] it was 9.55 nM; on 5-HT2C [5] (5-HT2C EC50, nM), 33.2 nM; on 5-HT2C [6] it was 11.5 nM. Also, the “5-HT2A/5-HT2c Selectivity Factor ΔLog(Emax/EC50)” value in the series on 5-HT2A [3] was 26.7.
